# Reference: PubChem BioAssay (NCI)
#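 Values below derive from 48-hour exposures of cells grown in 96-well plates, with endpoints linearly interpolated between the two concentrations bracketing the appropriate inhibition level. The concentration for full growth arrest is given as TGI.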
# What was measured:
# Test in all cases: inhibition of tumour cell growth, NCI panel, 48 h
# OVCAR-5 ovarian = test system: OVCAR-5 ovarian
# HOP-62 NSCLC = test system: HOP-62 NSCLC
# COLO 205 colon = test system: COLO 205 colon
# OVCAR-4 ovarian = test system: OVCAR-4 ovarian
# A498 renal = test system: A498 renal
# SK-MEL-2 melanoma = test system: SK-MEL-2 melanoma
# M19-MEL melanoma = test system: M19-MEL melanoma
# HOP-18 NSCLC = test system: HOP-18 NSCLC
# ACHN renal = test system: ACHN renal
# HCT-15 colon = test system: HCT-15 colon
# EKVX NSCLC = test system: EKVX NSCLC
# HL-60(TB) leukemia = test system: HL-60(TB) leukemia
# CAKI-1 renal = test system: CAKI-1 renal
# HCT-116 colon = test system: HCT-116 colon
# UACC-62 melanoma = test system: UACC-62 melanoma
# DMS 273 small cell lung = test system: DMS 273 small cell lung
# MOLT-4 leukemia = test system: MOLT-4 leukemia
# NCI-H226 lung = test system: NCI-H226 lung
# U251 CNS = test system: U251 CNS
# SNB-75 CNS = test system: SNB-75 CNS
# SNB-78 CNS = test system: SNB-78 CNS
# HCC-2998 colon = test system: HCC-2998 colon
# CCRF-CEM leukemia = test system: CCRF-CEM leukemia
# HT29 colon = test system: HT29 colon
# SNB-19 CNS = test system: SNB-19 CNS
# SK-OV-3 ovarian = test system: SK-OV-3 ovarian
# SK-MEL-28 melanoma = test system: SK-MEL-28 melanoma
# NCI-H23 lung = test system: NCI-H23 lung
# RXF-631 renal = test system: RXF-631 renal
# SW-620 colon = test system: SW-620 colon
# IGROV1 ovarian = test system: IGROV1 ovarian
# OVCAR-8 ovarian = test system: OVCAR-8 ovarian
# DLD-1 colon = test system: DLD-1 colon
# LOX IMVI melanoma = test system: LOX IMVI melanoma
# M14 melanoma = test system: M14 melanoma
# SF-268 CNS = test system: SF-268 CNS
# 786-0 renal = test system: 786-0 renal
# UO-31 renal = test system: UO-31 renal
# NCI-H460 lung = test system: NCI-H460 lung
# A549 NSCLC = test system: A549 NSCLC
# KM12 colon = test system: KM12 colon
# SN12C renal = test system: SN12C renal
# MALME-3M melanoma = test system: MALME-3M melanoma
# TK-10 renal = test system: TK-10 renal
# UACC-257 melanoma = test system: UACC-257 melanoma
# SK-MEL-5 melanoma = test system: SK-MEL-5 melanoma
# SF-539 CNS = test system: SF-539 CNS
# HOP-92 NSCLC = test system: HOP-92 NSCLC
# OVCAR-3 ovarian = test system: OVCAR-3 ovarian
# RXF 393 renal = test system: RXF 393 renal
# DMS 114 small cell lung = test system: DMS 114 small cell lung
# SF-295 CNS = test system: SF-295 CNS
# XF 498 CNS = test system: XF 498 CNS
# RPMI-8226 leukemia = test system: RPMI-8226 leukemia
# SR leukemia = test system: SR leukemia
# K-562 leukemia = test system: K-562 leukemia
# NCI-H522 lung = test system: NCI-H522 lung
# LXFL 529 NSCLC = test system: LXFL 529 NSCLC
# KM20L2 colon = test system: KM20L2 colon
smiles,measurement,setting,value
COC1C(CN[N+](=O)CC2OC3OC(C)(C)OC3C2OC)OC2OC(C)(C)OC21 (stereo not drawn),TGI,OVCAR-5 ovarian,> 100 µM
same,TGI,HOP-62 NSCLC,> 100 µM
same,TGI,COLO 205 colon,> 100 µM
same,TGI,OVCAR-4 ovarian,> 100 µM
same,TGI,A498 renal,> 100 µM
same,TGI,SK-MEL-2 melanoma,> 100 µM
same,TGI,M19-MEL melanoma,> 100 µM
same,TGI,HOP-18 NSCLC,> 100 µM
same,TGI,ACHN renal,> 100 µM
same,TGI,HCT-15 colon,> 100 µM
same,TGI,EKVX NSCLC,> 100 µM
same,TGI,HL-60(TB) leukemia,> 100 µM
same,TGI,CAKI-1 renal,> 100 µM
same,TGI,HCT-116 colon,> 100 µM
same,TGI,UACC-62 melanoma,> 100 µM
same,TGI,DMS 273 small cell lung,> 100 µM
same,TGI,MOLT-4 leukemia,> 100 µM
same,TGI,NCI-H226 lung,> 100 µM
same,TGI,U251 CNS,> 100 µM
same,TGI,SNB-75 CNS,> 100 µM
same,TGI,SNB-78 CNS,> 100 µM
same,TGI,HCC-2998 colon,> 100 µM
same,TGI,CCRF-CEM leukemia,> 100 µM
same,TGI,HT29 colon,> 100 µM
same,TGI,SNB-19 CNS,> 100 µM
same,TGI,SK-OV-3 ovarian,> 100 µM
same,TGI,SK-MEL-28 melanoma,> 100 µM
same,TGI,NCI-H23 lung,> 100 µM
same,TGI,RXF-631 renal,> 100 µM
same,TGI,SW-620 colon,> 100 µM
same,TGI,IGROV1 ovarian,> 100 µM
same,TGI,OVCAR-8 ovarian,> 100 µM
same,TGI,DLD-1 colon,> 100 µM
same,TGI,LOX IMVI melanoma,> 100 µM
same,TGI,M14 melanoma,> 100 µM
same,TGI,SF-268 CNS,> 100 µM
same,TGI,786-0 renal,> 100 µM
same,TGI,UO-31 renal,> 100 µM
same,TGI,NCI-H460 lung,> 100 µM
same,TGI,A549 NSCLC,> 100 µM
same,TGI,KM12 colon,> 100 µM
same,TGI,SN12C renal,> 100 µM
same,TGI,MALME-3M melanoma,> 100 µM
same,TGI,TK-10 renal,> 100 µM
same,TGI,UACC-257 melanoma,> 100 µM
same,TGI,SK-MEL-5 melanoma,> 100 µM
same,TGI,SF-539 CNS,> 100 µM
same,TGI,HOP-92 NSCLC,> 100 µM
same,TGI,OVCAR-3 ovarian,> 100 µM
same,TGI,RXF 393 renal,> 100 µM
same,TGI,DMS 114 small cell lung,> 100 µM
same,TGI,SF-295 CNS,> 100 µM
CCCCCCCCCCCC(=O)CC(=O)c1c(O)cccc1O,TGI,OVCAR-5 ovarian,36.4 µM
same,TGI,HOP-62 NSCLC,48.9 µM
same,TGI,COLO 205 colon,31.2 µM
same,TGI,OVCAR-4 ovarian,34.1 µM
same,TGI,XF 498 CNS,33.3 µM
same,TGI,SK-MEL-2 melanoma,31 µM
same,TGI,M19-MEL melanoma,34.2 µM
same,TGI,HOP-18 NSCLC,36.7 µM
same,TGI,ACHN renal,35.2 µM
same,TGI,HCT-15 colon,47.4 µM
same,TGI,EKVX NSCLC,33.4 µM
same,TGI,HL-60(TB) leukemia,> 100 µM
same,TGI,RPMI-8226 leukemia,43.9 µM
same,TGI,HCT-116 colon,31.1 µM
same,TGI,UACC-62 melanoma,90.1 µM
same,TGI,DMS 273 small cell lung,32.6 µM
same,TGI,MOLT-4 leukemia,41.9 µM
same,TGI,NCI-H226 lung,32.1 µM
same,TGI,U251 CNS,31.5 µM
same,TGI,SNB-75 CNS,36.5 µM
same,TGI,SR leukemia,45.8 µM
same,TGI,SNB-78 CNS,41 µM
same,TGI,HCC-2998 colon,82.9 µM
same,TGI,CCRF-CEM leukemia,> 100 µM
same,TGI,HT29 colon,33.7 µM
same,TGI,SNB-19 CNS,36.8 µM
same,TGI,SK-OV-3 ovarian,95.5 µM
same,TGI,SK-MEL-28 melanoma,44.1 µM
same,TGI,NCI-H23 lung,41.9 µM
same,TGI,K-562 leukemia,76.4 µM
same,TGI,SW-620 colon,31 µM
same,TGI,IGROV1 ovarian,36.4 µM
same,TGI,OVCAR-8 ovarian,30.6 µM
same,TGI,DLD-1 colon,32.4 µM
same,TGI,LOX IMVI melanoma,32 µM
same,TGI,M14 melanoma,32.9 µM
same,TGI,NCI-H522 lung,65.3 µM
same,TGI,SF-268 CNS,33 µM
same,TGI,786-0 renal,39.4 µM
same,TGI,UO-31 renal,29.3 µM
same,TGI,LXFL 529 NSCLC,32.2 µM
same,TGI,NCI-H460 lung,35.7 µM
same,TGI,A549 NSCLC,33.1 µM
same,TGI,KM12 colon,31.2 µM
same,TGI,SN12C renal,33.6 µM
same,TGI,MALME-3M melanoma,32.6 µM
same,TGI,TK-10 renal,57.5 µM
same,TGI,UACC-257 melanoma,34.5 µM
same,TGI,SK-MEL-5 melanoma,35.6 µM
same,TGI,SF-539 CNS,35.5 µM
same,TGI,KM20L2 colon,43.8 µM
same,TGI,HOP-92 NSCLC,39 µM
same,TGI,OVCAR-3 ovarian,34.4 µM
same,TGI,RXF 393 renal,34.5 µM
same,TGI,DMS 114 small cell lung,34.6 µM
same,TGI,SF-295 CNS,34.8 µM
